Test results reported in ChEMBL document CHEMBL1201862, “PubChem BioAssay data set” (2004).
The source made the active and inactive calls.

Columns and labels:
[1] = decrease of insulin promoter-GFP reporter – imaging, high-content screening, mouse beta cells (AID 1628); assay type: functional; conditions: MIN6
[2] = MIN6 cell viability loss – mouse insulinoma, cytotoxicity control, dose response (AID 2122); assay type: functional;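 also: confirmatory high-throughput counterscreen run to flag cytotoxic compounds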
HEK293 [3] = assay: cells; conditions: Homo sapiens
HEK293 [4] = assay: cells; conditions: Homo sapiens; remark: listed apart in the source
[5] = target: T1, RNA-binding protein pos-1 (Caenorhabditis elegans, UniProt G5EF15); assay: disruptors of C. elegans POS-1 RNA interaction – biochemical, fluorescence polarization, dose response (AID 1964);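 also: purified POS-1 fused to maltose binding protein made in E. coli; potency of compounds blocking POS-1 binding to fluorescent RNA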
T1 sequence (G5EF15 whole entry): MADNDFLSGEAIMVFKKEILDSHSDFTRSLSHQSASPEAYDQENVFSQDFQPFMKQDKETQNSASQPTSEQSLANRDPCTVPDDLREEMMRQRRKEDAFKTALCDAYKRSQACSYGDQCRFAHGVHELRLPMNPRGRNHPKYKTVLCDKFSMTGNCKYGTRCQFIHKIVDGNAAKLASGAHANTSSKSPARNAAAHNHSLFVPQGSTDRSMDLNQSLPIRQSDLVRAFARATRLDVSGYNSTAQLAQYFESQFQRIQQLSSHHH

[6] = target: T2, Zinc finger protein mex-5 (Caenorhabditis elegans, UniProt Q9XUB2); assay: potency of MEX-5 RNA-binding blockers – biochemical, C. elegans, fluorescence polarization, dose response (AID 1960)
T2 sequence (Q9XUB2 whole entry): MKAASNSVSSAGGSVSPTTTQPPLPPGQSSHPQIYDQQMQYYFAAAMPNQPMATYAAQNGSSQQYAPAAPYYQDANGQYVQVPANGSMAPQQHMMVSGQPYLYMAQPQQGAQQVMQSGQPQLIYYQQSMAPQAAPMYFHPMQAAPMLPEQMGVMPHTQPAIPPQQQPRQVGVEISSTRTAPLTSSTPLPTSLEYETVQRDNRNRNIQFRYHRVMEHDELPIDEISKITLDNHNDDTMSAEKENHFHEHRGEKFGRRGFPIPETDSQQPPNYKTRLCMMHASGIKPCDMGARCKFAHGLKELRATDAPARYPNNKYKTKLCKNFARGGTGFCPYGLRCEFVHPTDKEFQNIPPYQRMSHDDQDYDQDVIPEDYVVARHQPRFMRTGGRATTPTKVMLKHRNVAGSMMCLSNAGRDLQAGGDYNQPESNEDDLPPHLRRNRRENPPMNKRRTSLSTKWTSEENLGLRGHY

Keap1/Nrf2 = Keap1/Nrf2 (Homo sapiens, UniProt Q14145); assay: disruptors of Keap1 binding to Nrf2 peptide – biochemical, fluorescence polarization, cherry-picked samples, dose response (AID 588683)
Genome polyprotein = Genome polyprotein (dengue virus type 2, UniProt P29990); assay: flavivirus cap methylation enzyme inhibition – biochemical, confirmation dose response, primary screen (AID 588689); assay type: functional
Exodeoxyribonuclease V = target: T3, Exodeoxyribonuclease V (Escherichia coli (strain K12), UniProt P04993+P07648+P08394); assay: RecBCD inhibition via phage-restricted bacterial growth – absorbance, V66 E. coli, mutant T4 phage, counter-screen for AddAB inhibitor project, dose response (AID 492957); assay type: functional, cell-based, Escherichia coli str. K-12 substr. MG1655
T3 sequence (P04993 whole entry): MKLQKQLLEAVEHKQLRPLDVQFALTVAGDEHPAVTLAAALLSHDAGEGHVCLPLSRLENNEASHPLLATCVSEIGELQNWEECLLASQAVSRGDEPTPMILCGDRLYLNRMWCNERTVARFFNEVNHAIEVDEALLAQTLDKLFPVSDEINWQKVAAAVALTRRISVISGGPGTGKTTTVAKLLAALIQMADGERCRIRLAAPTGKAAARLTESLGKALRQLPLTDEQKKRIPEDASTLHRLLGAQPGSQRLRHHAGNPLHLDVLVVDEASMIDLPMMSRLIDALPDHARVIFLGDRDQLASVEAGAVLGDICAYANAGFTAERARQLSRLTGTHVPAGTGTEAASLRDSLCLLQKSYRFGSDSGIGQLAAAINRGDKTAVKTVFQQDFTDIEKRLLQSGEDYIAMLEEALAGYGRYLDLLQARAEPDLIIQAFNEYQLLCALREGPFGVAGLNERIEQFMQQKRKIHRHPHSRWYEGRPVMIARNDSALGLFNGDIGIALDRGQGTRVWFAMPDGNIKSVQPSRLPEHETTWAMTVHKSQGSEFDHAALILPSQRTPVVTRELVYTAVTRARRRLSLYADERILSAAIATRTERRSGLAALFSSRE
T3 sequence (P07648 whole entry): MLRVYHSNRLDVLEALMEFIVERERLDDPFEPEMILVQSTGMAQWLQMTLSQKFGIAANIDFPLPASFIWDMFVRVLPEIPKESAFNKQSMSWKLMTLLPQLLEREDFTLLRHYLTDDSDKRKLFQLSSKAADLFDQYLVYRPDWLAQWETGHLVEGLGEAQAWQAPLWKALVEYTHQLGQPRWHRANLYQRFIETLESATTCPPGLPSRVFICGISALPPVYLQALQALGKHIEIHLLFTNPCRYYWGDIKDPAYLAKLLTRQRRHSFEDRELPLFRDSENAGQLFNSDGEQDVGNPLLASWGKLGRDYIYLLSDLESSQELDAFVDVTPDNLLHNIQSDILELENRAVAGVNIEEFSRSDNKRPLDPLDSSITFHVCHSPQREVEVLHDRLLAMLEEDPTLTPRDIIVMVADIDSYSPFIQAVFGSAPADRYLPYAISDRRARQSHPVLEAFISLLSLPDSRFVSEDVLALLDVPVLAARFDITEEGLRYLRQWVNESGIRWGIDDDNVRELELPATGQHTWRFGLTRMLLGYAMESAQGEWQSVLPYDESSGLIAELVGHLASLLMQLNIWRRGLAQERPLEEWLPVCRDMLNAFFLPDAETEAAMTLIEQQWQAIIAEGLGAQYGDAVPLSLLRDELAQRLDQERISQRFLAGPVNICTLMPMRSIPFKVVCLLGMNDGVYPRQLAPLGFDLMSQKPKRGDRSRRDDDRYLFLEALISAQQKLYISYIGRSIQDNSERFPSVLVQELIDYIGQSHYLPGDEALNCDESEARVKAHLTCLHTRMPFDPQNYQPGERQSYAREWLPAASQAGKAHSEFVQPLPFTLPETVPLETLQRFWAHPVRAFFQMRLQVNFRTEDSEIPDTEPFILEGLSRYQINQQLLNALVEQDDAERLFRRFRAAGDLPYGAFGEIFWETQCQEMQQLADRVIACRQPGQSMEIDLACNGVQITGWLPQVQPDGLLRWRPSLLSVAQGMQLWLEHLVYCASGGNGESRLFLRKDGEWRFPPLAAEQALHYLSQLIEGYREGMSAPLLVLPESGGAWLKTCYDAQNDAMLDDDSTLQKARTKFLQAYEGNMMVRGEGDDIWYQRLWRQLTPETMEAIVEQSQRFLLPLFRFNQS
T3 sequence (P08394 whole entry): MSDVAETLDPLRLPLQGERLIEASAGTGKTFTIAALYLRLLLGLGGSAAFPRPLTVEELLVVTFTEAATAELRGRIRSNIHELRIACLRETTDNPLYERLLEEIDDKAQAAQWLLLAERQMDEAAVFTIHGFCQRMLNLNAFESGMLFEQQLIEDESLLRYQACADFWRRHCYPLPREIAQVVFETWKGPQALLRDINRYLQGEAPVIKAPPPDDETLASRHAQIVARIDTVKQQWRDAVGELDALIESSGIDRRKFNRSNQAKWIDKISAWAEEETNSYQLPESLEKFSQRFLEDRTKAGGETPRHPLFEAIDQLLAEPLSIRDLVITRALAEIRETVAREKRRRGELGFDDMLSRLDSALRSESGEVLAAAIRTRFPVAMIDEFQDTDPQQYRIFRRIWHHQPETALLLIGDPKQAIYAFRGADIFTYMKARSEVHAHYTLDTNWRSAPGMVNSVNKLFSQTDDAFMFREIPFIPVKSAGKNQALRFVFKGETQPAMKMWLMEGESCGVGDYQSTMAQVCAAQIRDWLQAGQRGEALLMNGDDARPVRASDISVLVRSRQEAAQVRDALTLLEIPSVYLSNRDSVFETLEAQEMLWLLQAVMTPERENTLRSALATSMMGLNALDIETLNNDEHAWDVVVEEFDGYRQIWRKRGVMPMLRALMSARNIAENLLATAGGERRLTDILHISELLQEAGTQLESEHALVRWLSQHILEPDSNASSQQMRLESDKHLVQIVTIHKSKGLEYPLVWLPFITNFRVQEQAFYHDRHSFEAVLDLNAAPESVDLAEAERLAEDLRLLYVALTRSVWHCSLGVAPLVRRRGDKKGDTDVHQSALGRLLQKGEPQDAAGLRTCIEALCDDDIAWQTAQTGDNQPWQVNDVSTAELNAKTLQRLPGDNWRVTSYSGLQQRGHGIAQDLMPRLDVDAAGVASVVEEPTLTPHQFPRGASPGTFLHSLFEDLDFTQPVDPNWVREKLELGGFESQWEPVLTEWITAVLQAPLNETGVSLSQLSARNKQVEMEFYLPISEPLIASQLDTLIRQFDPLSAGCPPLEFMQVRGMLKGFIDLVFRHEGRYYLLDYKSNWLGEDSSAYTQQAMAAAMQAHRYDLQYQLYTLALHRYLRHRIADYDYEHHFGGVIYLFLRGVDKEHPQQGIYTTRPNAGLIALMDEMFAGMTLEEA

[7] = Counterscreen for AddAB inhibitors: absorbance-based bacterial cell-based high throughput dose response assay for inhibitors of bacterial viability. [Related pubchem assays (depositor defined):AID435030, AID449728, AID449731, AID488942, AID488955, AID488956]; assay type: functional
[8] = test system: Streptococcus sp. 'group A'; assay: Streptococcus pyogenes SK(-)GAS viability under kanamycin – luminescence, BacTiterGlo, confirmation, counter-screen for streptokinase expression inhibitor project, dose response (AID 1900); assay type: functional, organism-based
Streptokinase A = target: T4, Streptokinase A (Streptococcus pyogenes serotype M1, UniProt P10520); assay: viability-normalized secreted streptokinase activity reduction – plasminogen activation absorbance, OD405, dose response (AID 1914); assay type: functional, Streptococcus pyogenes M1 GAS;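 also: secreted streptokinase activity via plasminogen activation per viability signal from cell pellet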
T4 sequence (P10520 whole entry): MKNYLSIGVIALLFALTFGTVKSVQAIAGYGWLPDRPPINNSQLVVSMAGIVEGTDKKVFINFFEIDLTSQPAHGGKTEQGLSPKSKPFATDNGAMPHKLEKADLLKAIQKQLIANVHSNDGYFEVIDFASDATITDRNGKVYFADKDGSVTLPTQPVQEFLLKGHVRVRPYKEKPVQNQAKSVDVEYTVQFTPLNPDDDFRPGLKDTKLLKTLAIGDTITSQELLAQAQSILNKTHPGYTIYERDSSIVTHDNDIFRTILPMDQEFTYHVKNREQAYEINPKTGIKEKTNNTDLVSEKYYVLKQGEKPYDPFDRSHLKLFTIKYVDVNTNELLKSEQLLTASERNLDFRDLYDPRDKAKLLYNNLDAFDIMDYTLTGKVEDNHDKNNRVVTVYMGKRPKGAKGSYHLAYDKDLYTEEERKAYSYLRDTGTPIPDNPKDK

NS3 = NS3 (Hepatitis C virus, UniProt A3EZJ3); assay: PubChem AID 2173; parameters: species or system Hepacivirus hominis
[9] = Trypanosoma cruzi growth suppression in host cells – NIH3T3 host cells, beta-gal luminescence, confirmation (AID 2044); assay type: functional, cell-based;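 also: intracellular parasites grown in NIH/3T3 mouse fibroblasts as host cells; luminescent beta-galactosidase reporter signal from transgenic T. cruzi replicating inside host cells; inhibitors lower the luminescence signal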
[10] = viability of PTEN-deleted HCT116 cells – cell-based, HCT116 PTEN knockout, dose response (AID 1047); assay type: functional;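 also: HCT116 colon tumor cells with PTEN knocked out; cells exposed to compound for 60 hours before readout; potency for loss of cell viability measured by luminescence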
[11] = NIH3T3 cell viability loss – ATP luminescence, mouse fibroblasts, counter-screen, dose response (AID 2010); assay type: functional, cell-based;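 also: cells exposed to compound for about 90 hours before reading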
[12] = viability of HCT116 lacking mutant beta-catenin – cell-based, human colon tumor, dose response (AID 1045); assay type: functional;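 also: HCT116 colon tumor cells with beta catenin knocked out; cells exposed to compound for 60 hours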
Streptococcus = assay: GAS UMAA2166 growth inhibition – luminescence, BacTiterGlo, counter-screen for streptokinase expression inhibitor project, dose response (AID 1915); assay type: functional, organism-based;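 also: potency for reduction of bacterial viability or growth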
Vero = assay: viability of Vero cells under compound – cytotoxicity control for flavivirus capping enzyme inhibitors (AID 588742); assay type: functional; conditions: Chlorocebus sabaeus

Genome polyprotein, sequence (P29990 2492-3391 limits assumed): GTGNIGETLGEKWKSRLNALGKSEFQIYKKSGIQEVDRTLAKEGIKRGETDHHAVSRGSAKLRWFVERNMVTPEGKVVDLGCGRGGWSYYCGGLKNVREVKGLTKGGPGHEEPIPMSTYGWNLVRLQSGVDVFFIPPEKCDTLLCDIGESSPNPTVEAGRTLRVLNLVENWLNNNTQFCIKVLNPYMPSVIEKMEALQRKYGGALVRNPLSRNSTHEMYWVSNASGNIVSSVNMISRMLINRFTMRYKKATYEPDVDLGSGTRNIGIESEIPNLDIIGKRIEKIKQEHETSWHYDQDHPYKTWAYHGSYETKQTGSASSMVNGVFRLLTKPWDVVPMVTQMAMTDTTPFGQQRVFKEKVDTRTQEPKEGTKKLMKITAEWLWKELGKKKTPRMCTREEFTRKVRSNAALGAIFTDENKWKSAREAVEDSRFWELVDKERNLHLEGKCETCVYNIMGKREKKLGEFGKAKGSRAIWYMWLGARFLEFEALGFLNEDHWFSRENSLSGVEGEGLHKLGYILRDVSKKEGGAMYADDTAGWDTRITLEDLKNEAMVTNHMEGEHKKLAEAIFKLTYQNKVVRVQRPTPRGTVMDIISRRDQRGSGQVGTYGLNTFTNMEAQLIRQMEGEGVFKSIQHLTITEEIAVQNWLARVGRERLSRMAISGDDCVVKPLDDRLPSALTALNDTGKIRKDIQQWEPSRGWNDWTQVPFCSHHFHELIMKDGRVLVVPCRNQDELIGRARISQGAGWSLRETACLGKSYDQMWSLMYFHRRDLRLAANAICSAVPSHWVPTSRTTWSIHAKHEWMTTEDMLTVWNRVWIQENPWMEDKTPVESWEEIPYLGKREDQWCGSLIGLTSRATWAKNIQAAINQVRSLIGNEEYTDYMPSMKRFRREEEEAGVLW
Keap1/Nrf2, sequence (Q16236 whole entry): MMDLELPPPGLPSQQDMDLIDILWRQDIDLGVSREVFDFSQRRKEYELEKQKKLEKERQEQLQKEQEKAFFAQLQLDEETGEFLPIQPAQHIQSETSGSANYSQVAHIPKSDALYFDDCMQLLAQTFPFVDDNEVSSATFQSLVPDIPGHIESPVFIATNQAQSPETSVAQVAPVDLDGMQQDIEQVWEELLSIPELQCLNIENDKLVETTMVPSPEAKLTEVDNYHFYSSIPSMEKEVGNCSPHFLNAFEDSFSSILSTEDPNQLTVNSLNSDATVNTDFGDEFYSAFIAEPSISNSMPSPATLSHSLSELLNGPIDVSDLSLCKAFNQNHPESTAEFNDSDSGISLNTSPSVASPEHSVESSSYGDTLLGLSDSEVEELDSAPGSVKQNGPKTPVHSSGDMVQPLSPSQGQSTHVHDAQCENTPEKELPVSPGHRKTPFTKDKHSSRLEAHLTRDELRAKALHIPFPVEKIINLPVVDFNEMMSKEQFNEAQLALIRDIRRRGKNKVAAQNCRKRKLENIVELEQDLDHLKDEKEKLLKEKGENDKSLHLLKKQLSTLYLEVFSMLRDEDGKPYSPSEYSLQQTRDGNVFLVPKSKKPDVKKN
Keap1/Nrf2, sequence (Q14145 whole entry): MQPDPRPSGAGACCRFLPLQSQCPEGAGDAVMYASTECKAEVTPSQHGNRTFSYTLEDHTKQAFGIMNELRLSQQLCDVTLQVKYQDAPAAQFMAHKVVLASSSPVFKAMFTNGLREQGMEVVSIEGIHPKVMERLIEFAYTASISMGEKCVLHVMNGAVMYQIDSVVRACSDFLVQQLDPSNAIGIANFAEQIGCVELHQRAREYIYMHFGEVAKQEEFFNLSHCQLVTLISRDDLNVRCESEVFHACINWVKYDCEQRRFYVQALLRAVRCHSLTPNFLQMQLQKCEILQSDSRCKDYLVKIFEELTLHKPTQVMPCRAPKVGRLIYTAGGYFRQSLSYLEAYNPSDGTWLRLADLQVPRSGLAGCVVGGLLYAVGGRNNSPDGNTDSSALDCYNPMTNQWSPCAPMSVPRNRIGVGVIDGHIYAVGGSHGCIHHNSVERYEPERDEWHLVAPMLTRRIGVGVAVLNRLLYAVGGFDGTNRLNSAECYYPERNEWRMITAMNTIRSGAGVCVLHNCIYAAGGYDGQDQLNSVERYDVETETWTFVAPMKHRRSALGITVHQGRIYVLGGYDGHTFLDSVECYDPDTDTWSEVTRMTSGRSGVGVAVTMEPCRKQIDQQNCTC
NS3, sequence (A3EZJ3 whole entry): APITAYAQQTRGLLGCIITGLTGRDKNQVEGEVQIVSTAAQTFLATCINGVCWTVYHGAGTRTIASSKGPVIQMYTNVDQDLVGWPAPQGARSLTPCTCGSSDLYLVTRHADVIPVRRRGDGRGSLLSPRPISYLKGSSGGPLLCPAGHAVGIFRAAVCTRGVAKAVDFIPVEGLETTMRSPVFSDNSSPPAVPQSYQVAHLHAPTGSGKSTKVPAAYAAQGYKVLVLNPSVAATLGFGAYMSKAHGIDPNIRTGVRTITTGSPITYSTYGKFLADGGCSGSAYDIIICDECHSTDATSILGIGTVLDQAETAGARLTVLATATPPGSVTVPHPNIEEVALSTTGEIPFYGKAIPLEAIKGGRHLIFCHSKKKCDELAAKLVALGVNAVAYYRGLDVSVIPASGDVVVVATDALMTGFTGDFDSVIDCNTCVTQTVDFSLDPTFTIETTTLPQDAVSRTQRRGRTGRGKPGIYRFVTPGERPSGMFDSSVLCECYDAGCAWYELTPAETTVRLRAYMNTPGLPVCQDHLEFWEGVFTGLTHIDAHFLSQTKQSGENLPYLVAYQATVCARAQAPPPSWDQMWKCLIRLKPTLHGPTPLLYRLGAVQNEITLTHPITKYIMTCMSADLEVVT

In the case of `CC(=O)OCC(=O)[C@@]1(O)CC[C@H]2[C@@H]3CCC4=CC(=O)C=C[C@]4(C)[C@@]3(Cl)[C@@H](Cl)C[C@@]21C` [DICHLORISONE ACETATE], the IC50 [1] is reported as < 0.25 µM (active) and the IC50 [2] is reported as > 16 µM (inactive).

With `Cc1cccc(C2CC(c3ccccc3)Nc3ncnn32)c1` (stereo unspecified) the EC50 (HEK293 [3]) was > 59.6 µM (inactive) and the EC50 (HEK293 [4]) was > 59.6 µM (inactive).

For `Cc1c(N)cc(N)cc1C(=O)O`, the EC50 [5] was > 300 µM (not active), the EC50 [6] was 27.7 µM (active) and the AC50 (Keap1/Nrf2) was > 52 µM (inactive). For the same compound, the IC50 (Genome polyprotein) was > 100 µM (active).

For `CC(Sc1ccsc1[N+](=O)[O-])C(=O)NCc1ccco1` (stereo unspecified), the IC50 (Exodeoxyribonuclease V) was > 119 µM (inactive) and the IC50 [7] was > 119 µM (inactive).

With `O=C(/C=C/c1ccccc1Cl)c1ccccc(=O)c1O` the IC50 [1] was 3.72 µM (active), the EC50 [8] was 1.61 µM (active) and the IC50 [2] was 4.43 µM (active). The EC50 (Streptokinase A) was > 150 µM (not active), the IC50 (NS3) was 4.49 µM (active) and the EC50 [9] was 1.22 µM (active). The EC50 [10] was 1.29 µM (active), the EC50 [11] was 6.37 µM (active) and the EC50 [12] was 1.07 µM (active). The EC50 (Streptococcus) was 9.56 µM (active) and the CC50 (Vero) was 9.47 µM (active).
